Read-outs that look alike come from different tables or passages of the source.
Columns and labels:
[1] = Hepatic microsomal intrinsic clearance assay; assay type: in vitro ADME; conditions: pooled liver microsomes, pH 7.4; liver microsomes 0.5 mg/mL; 1 μM; NADPH; 1 hour at 37° C.; LLOQ 0.36 L/h/kg
Description: Compounds (final concentration 1 μM, 1% organic) of the invention were incubated for 1 hour at 37° C., with shaking, in phosphate buffer (pH 7.4) containing commercially sourced pooled liver microsomes (final concentration 0.5 mg/mL). […] At designated time points (0, 5, 10, 20, 30 and 60 minutes) ice-cold acetonitrile containing internal standard (300 μL) was added to an incubation well to stop the reaction then mixed and centrifuged (3220 g for 20 minutes at 4° C.). Supernatant was diluted (1:4) with deionized water then analyzed by LC-MS/MS.

LRRK2 WT [2] = target: T1, LRRK2 WT (Homo sapiens (Human), UniProt Q5S007); assay: LRRK2 wild-type LanthaScreen TR-FRET kinase activity assay; assay type: biochemical; conditions: 1 nM kinase, 1.3 mM ATP, n≥2 tests
T1 sequence (Q5S007 970-2527): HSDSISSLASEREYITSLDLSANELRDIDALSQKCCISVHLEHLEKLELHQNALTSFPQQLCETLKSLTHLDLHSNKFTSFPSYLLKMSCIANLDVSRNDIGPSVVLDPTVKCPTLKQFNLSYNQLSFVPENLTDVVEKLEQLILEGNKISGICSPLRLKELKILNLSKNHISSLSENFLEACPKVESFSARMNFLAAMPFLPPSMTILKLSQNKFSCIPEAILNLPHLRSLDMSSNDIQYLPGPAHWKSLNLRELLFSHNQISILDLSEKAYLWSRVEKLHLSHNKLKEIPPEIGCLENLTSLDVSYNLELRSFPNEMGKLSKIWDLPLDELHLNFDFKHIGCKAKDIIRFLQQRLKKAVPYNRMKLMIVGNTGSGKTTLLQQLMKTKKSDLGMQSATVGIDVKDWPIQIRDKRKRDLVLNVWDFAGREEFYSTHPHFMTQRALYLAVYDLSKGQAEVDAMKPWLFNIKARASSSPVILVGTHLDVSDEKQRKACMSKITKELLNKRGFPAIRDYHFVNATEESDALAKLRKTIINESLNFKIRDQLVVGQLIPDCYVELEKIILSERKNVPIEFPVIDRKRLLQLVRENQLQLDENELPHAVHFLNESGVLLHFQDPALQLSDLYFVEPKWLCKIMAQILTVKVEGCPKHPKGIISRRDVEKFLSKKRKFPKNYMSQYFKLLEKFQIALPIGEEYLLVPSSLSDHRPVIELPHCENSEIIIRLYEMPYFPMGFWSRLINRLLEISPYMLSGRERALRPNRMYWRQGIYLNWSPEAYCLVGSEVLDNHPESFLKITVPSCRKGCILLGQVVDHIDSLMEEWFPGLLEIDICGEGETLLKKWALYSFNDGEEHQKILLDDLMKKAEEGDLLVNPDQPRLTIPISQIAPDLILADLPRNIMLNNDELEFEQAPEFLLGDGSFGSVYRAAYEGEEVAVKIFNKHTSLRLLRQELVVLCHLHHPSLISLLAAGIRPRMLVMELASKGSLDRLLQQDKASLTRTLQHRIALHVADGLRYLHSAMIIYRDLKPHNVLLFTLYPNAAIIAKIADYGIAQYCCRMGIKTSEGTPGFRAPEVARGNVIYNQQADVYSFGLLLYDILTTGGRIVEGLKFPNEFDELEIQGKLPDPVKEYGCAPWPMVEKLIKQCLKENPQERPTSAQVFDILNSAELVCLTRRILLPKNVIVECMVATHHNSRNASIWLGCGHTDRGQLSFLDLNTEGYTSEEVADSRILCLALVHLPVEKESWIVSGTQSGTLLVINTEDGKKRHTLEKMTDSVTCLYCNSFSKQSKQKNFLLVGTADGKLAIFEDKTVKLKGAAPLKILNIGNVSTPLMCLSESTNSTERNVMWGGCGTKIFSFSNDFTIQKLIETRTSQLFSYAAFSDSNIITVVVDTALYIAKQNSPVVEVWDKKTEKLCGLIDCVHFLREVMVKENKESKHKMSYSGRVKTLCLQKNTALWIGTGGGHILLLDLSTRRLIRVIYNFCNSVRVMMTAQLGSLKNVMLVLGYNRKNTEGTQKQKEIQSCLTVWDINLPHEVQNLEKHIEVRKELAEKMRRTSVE
Description: (§1) LRRK2 kinase activity was measured using a LanthaScreen kinase activity assay available from Invitrogen (Life Technologies Corporation). […] The phosphorylated peptide is recognized by a terbium-labelled phospho-specific anti-LRRKtide antibody (pLRRKtide antibody), obtainable from Life Technologies Corporation) and, subsequently, the phosphorylated LRRKtide can be quantified by the extent of TR-FRET between the terbium donor and fluorescein acceptor.
(§2) As discussed above, this mutation increases the kinase activity relative to the wild type. The kinase reactions were performed in a 20 μL volume in 384-well plates. The kinase reaction buffer consisted of 50 mM Tris pH 8.5, 0.01% BRIJ-35, 10 mM MgCl2, 1 mM EGTA, and 2 mM DTT.
(§3) The mixture was further incubated for 30 minutes at RT. TR-FRET was measured by excitation of the terbium-donor with 340 nm light and subsequent (delay time […]) measurement of terbium and fluorescein emission at 495 nm and 520 nm, respectively, over a time window of […]. The measurement was repeated 30 times for fluorescein and 30 times for terbium emission with a […] between repeats. TR-FRET measurements were performed on a Biotek Synergy plate. The TR-FRET signal was calculated as the emission-ratio at 520 nm over 495 nm.
(§4) Test compound potency (IC50) was estimated by nonlinear regression using the sigmoidal dose-response (variable slope) using Xlfit 4 (IDBS, Guildford, Surrey, UK, model 205). Were the IC50 could not be determined the % inhibition at the highest tested concentration is given by equation 1. Equation (1): y=(A+((B−A)/(1+((C/x)^D)))) (1)
(§5) where y is the normalized TR-TRET ratio measurement for a given concentration of test compound, x is the concentration of test compound, A is the estimated efficacy (% inhibition) at infinite compound dilution, and B is the maximal efficacy (% inhibition). C is the IC50 value and D is the Hill slope coefficient. IC50 estimates were obtained from independent experiment and the logarithmic average was calculated.

LRRK2 G2019S = LRRK2 G2019S (Homo sapiens (Human), UniProt Q5S007, G2019S); assay: LRRK2 G2019S LanthaScreen TR-FRET kinase activity assay; assay type: biochemical; conditions: 250 pM kinase, 1.3 mM ATP, n≥2 tests
LRRK2 G2019S, sequence (Q5S007 970-2527 G2019S): as the sequence (Q5S007 970-2527) above, with G1050S counted along it
Description: as §1, §2, §3, §4, §5

LRRK2 WT [3] = target: T1, LRRK2 WT; assay: LRRK2 wild-type ADP-Glo kinase assay; assay type: biochemical; conditions: read-out: LRRK2 WT ADPGlo IC50
Description: LRRK2 kinase activity was measured using an ADP-Glo kinase assay from Promega Corporation. The assay is a homogeneous luminescence-based assay that measures ADP formed from a kinase reaction. The ADP is converted into ATP, which is used to generate light in a luciferase reaction. The luminescence generated correlates with kinase activity.
The LRRK2 kinase was obtained from Invitrogen (Life Technologies Corporation) and comprises residue 970 to 2527 of the full length human wild-type LRRK2 kinase. The kinase reactions were performed in a 10 μL volume in 384-well plates. The kinase reaction buffer consisted of 50 mM Tris pH 8.5, 0.01% BRIJ-35, 10 mM MgCl2, 1 mM EGTA, and 2 mM DTT.
The reaction mixture (10 μl total volume) was incubated for 3 hours at room temperature (RT, ca. 25° C.), before the reaction was terminated by addition of 10 μl ADP-Glo reagent. The mixture was further incubated for 60 minutes at RT before addition of 20 μl Kinase detection reagent from the ADP-Glo assay kit. Luminescence signal was measure on a BMG Labtech Pherastar FSX multimode microplate reader. The signal integration time was 0.5 s.
Test compound potency (Ki,app) was estimated by nonlinear regression using the tight-binding fit model in GeneData Screener (GeneData AG). In cases where the Ki,app could not be determined, the % inhibition at the highest tested concentration is reported. The tight-binding fit model is given by euquation (2). […] Ki,app is the apparent dissociation constant of the inhibitor. The IC50 can be calculated as given by equation (3). Equation (3): IC50=Ki,app+[E]/2 (3) IC50 estimates were obtained from independent experiment and the logarithmic average was calculated.

[4] = Rat brain disposition after oral gavage; assay type: in vivo, male Sprague-Dawley rats; conditions: male, Sprague-Dawley, oral 5 mg/kg, 1 h, mean ± stdev; for Kp at 1 h / Kp uu at 1 h: n=3
Description: Brain disposition was evaluated in male Sprague-Dawley rats (n=3, standard body weight). Briefly, test compound was formulated as a simple suspension (0.5% HPMC in water) then administered by oral gavage (10 mg/kg, 10 mL/kg or 5 mg/kg, 10 mL/kg). At the designated time point (0.5 or 1 h post dose) rats were sacrificed and terminal blood and brain samples taken. Isolated plasma and brain homogenates were extracted by standard protein precipitation in acetonitrile, containing internal standard. Diluted extracts were analyzed by liquid-chromatography coupled with tandem mass spectrometry detection (LC-MS/MS) using a bioanalytical method. Concentrations of test compound in plasma and brain were quantified against matrix matched calibration standards. The total plasma and brain concentration time data are presented in Table 4 alongside the calculated brain Kp (total brain concentration:total plasma concentration ratio).
The total brain-to-plasma partition coefficient (brain Kp) is given by the ratio of the total brain concentration and total plasma concentration of the compound according to the equation below: […]
Based on the measured rat fuplasma and fubrain values and the brain Kp the unbound brain-to-plasma partition coefficient (brain Kp,uu for each compound was calculated. The Kp,uu parameter describes the extent of brain penetration for each compound, i.e. the parameter gives a direct quantitative description of how the blood-brain barrier (BBB) handles the compounds regarding passive transport and active influx/efflux. The brain Kp,uu is given by the equation below: […]

[5] = Fraction unbound in rat plasma and brain homogenate by equilibrium dialysis; assay type: in vitro ADME, male Sprague-Dawley rat; conditions: 1 μM, equilibrium dialysis 5 h at 37° C.; for fubrain (% free): rat brain homogenate; for fuplasma (% free): rat plasma
Description: The fraction of unbound compound in male Sprague-Dawley rat plasma (fuplasma) and brain homogenate (fubrain) were determined by equilibrium dialysis using 96-well HTD-dialysis plates with dialysis membranes (molecular weight cut off 12-14 KDa). One side of the HTD-dialysis plate was loaded with matrix (plasma or brain homogenate) and the other side with buffer (100 mM sodium phosphate buffer, pH 7.4). Test compounds were dissolved in DMSO then spiked (5 μL of 0.2 mM) into blank (995 μL) plasma or diluted brain homogenate (1:4 ratio in phosphate buffer) giving a final nominal concentration 1 μM (≤0.5% DMSO). The matrices were loaded into respective chambers and equilibrated against phosphate buffer for 5 h at 37° C. (in a humidified air incubator with 5% CO2 with shaking). Samples from both chambers (buffer and plasma or brain homogenate) were aliquoted to fresh 96-well polypropylene plates then matrix matched using an equal volume of opposite blank matrix before extraction with cold solvent (3 volumes acetonitrile) containing an appropriate bioanalytical internal standard. After centrifugation (20 min, 3200 g, 4° C.) the supernatants were diluted with appropriate volumes of water and compound concentrations were quantified by LC/MS-MS against matrix matched calibration standards. The fuplasma and fubrain were calculated according to equation 4 below.
[formula] Where [F] is the compound concentration on the buffer (receiver) side of the membrane; [T] is the compound concentration on the plasma or brain (donor) side of the membrane; D is the matrix dilution factor which is determined as D=4 for brain matrix and D=1 for plasma matrix in these assays.

[6] = 0.5 nM kinase, 1.0 mM ATP, IC50=Ki,app+[E]/2, n≥2 tests
[7] = brain, n=3, read-out: Total brain concentration
[8] = plasma, n=3, read-out: Total plasma concentration

SMILES: COc1nnccc1-n1nc2c(c1C)Nc1ncc3c(Cl)nn(c3n1)CCCO2 [Example 21, 8-Chloro-2-(3-methoxypyridazin-4-yl)-3-methyl-2,4,12,13-tetrahydro-11H-5,7-(azenometheno)dipyrazolo[3,4-b:5′,1′-g][1]oxa[4,6,8]triazacycloundecine]
- CLint scaled at 1 μM [1]: 25.7 mL/min/kg
- IC50 (LRRK2 WT [2]): 0.94 nM
- IC50 (LRRK2 G2019S): 0.24 nM
- IC50 (LRRK2 WT [3]; [6]): 0.45 nM

SMILES: CCc1ncccc1-n1nc2c(c1C)Nc1ncc3c(Cl)nn(c3n1)CCCO2 [Example 4, 8-Chloro-2-(2-ethylpyridin-3-yl)-3-methyl-2,4,12,13-tetrahydro-11H-5,7-(azenometheno)dipyrazolo[3,4-b:5′,1′-g][1]oxa[4,6,8]triazacycloundecine]
- CLint scaled at 1 μM [1]: 23.8 mL/min/kg
- IC50 (LRRK2 WT [2]): 7 nM
- IC50 (LRRK2 G2019S): 1.8 nM
- IC50 (LRRK2 WT [3]; [6]): 0.82 nM

SMILES: [2H]C([2H])([2H])c1c2c(nn1-c1cc(F)cnc1C)OCCCn1nc(Cl)c3cnc(nc31)N2 [Example 30, 8-Chloro-2-(5-fluoro-2-methylpyridin-3-yl)-3-(methyl-d3)-2,4,12,13-tetrahydro-11H-5,7-(azenometheno)dipyrazolo[3,4-b:5′,1′-g][1]oxa[4,6,8]triazacycloundecine]
- CLint scaled at 1 μM [1]: 14 mL/min/kg

SMILES: [2H]C([2H])([2H])c1c2c(nn1-c1cc(C)cnc1C)OCCCn1nc(Cl)c3cnc(nc31)N2 [Example 27, 8-Chloro-2-(2,5-dimethylpyridin-3-yl)-3-(methyl-d3)-2,4,12,13-tetrahydro-11H-5,7-(azenometheno)dipyrazolo[3,4-b:5′,1′-g][1]oxa[4,6,8]triazacycloundecine]
- CLint scaled at 1 μM [1]: 8.17 mL/min/kg

SMILES: Cc1c2c(nn1-c1cccnc1OCF)OCCCn1nc(Cl)c3cnc(nc31)N2 [Example 18, 8-Chloro-2-(2-(fluoromethoxy)pyridin-3-yl)-3-methyl-2,4,12,13-tetrahydro-11H-5,7-(azenometheno)dipyrazolo[3,4-b:5′,1′-g][1]oxa[4,6,8]triazacycloundecine]
- Kp at 1 h ([4]; brain): 2.8 ± 0.6
- Kp uu at 1 h ([4]; brain): 1.04 ± 0.21
- concentration at 1 h [4, 7]: 343 ± 54 ng/g
- concentration at 1 h [4, 8]: 122 ± 11 ng/mL
- CLint scaled at 1 μM [1]: 11.2 mL/min/kg
- IC50 (LRRK2 WT [2]): 0.67 nM
- fubrain (% free) [5]: 4.7 % free
- fuplasma (% free) [5]: 12.8 % free
- IC50 (LRRK2 G2019S): 0.49 nM
- IC50 (LRRK2 WT [3]; [6]): 0.44 nM

SMILES: [2H]C([2H])([2H])c1c2c(nn1-c1cccnc1C)OCCCn1nc(Cl)c3cnc(nc31)N2 [Example 26, 8-Chloro-3-(methyl-d3)-2-(2-methylpyridin-3-yl)-2,4,12,13-tetrahydro-11H-5,7-(azenometheno)dipyrazolo[3,4-b:5′,1′-g][1]oxa[4,6,8]triazacycloundecine]
- CLint scaled at 1 μM [1]: 11.7 mL/min/kg

SMILES: CCc1c2c(nn1-c1cccnc1C)OCCCn1nc(Cl)c3cnc(nc31)N2 [Example 8, 8-Chloro-3-ethyl-2-(2-methylpyridin-3-yl)-2,4,12,13-tetrahydro-11H-5,7-(azenometheno)dipyrazolo[3,4-b:5′,1′-g][1]oxa[4,6,8]triazacycloundecine]
- Kp at 1 h ([4]; brain): 0.9 ± 0.1
- Kp uu at 1 h ([4]; brain): 0.37 ± 0.03
- concentration at 1 h [4, 7]: 279 ± 10 ng/g
- concentration at 1 h [4, 8]: 297 ± 29 ng/mL
- CLint scaled at 1 μM [1]: 16.8 mL/min/kg
- IC50 (LRRK2 WT [2]): 35 nM
- fubrain (% free) [5]: 7.5 % free
- fuplasma (% free) [5]: 19.3 % free
- IC50 (LRRK2 G2019S): 12 nM
- IC50 (LRRK2 WT [3]; [6]): 2.5 nM

SMILES: [2H]C([2H])([2H])c1c2c(nn1-c1cccnc1OC)OCCCn1nc(Cl)c3cnc(nc31)N2 [Example 28, 8-Chloro-2-(2-methoxypyridin-3-yl)-3-(methyl-d3)-2,4,12,13-tetrahydro-11H-5,7-(azenometheno)dipyrazolo[3,4-b:5′,1′-g][1]oxa[4,6,8]triazacycloundecine]
- CLint scaled at 1 μM [1]: 10.2 mL/min/kg
- IC50 (LRRK2 WT [2]): 0.76 nM
- IC50 (LRRK2 G2019S): 0.23 nM
- IC50 (LRRK2 WT [3]): 0.63 nM

SMILES: Cc1c2c(nn1-c1cccnc1OC(F)(F)F)OCCCn1nc(Cl)c3cnc(nc31)N2 [Example 20, 8-Chloro-3-methyl-2-(2-(trifluoromethoxy)pyridin-3-yl)-2,4,12,13-tetrahydro-11H-5,7-(azenometheno)dipyrazolo[3,4-b:5′,1′-g][1]oxa[4,6,8]triazacycloundecine]
- CLint scaled at 1 μM [1]: 18.3 mL/min/kg
- IC50 (LRRK2 WT [2]): 3.4 nM
- IC50 (LRRK2 G2019S): 1.1 nM
- IC50 (LRRK2 WT [3]; [6]): 0.48 nM

SMILES: Cc1c2c(nn1-c1cccnc1C(F)(F)F)OCCCn1nc(Cl)c3cnc(nc31)N2 [Example 17, 8-Chloro-3-methyl-2-(2-(trifluoromethyl)pyridin-3-yl)-2,4,12,13-tetrahydro-11H-5,7-(azenometheno)dipyrazolo[3,4-b:5′,1′-g][1]oxa[4,6,8]triazacycloundecine]
- CLint scaled at 1 μM [1]: 15.3 mL/min/kg
- IC50 (LRRK2 WT [2]): 20 nM
- IC50 (LRRK2 G2019S): 5.5 nM
- IC50 (LRRK2 WT [3]; [6]): 3.1 nM

From patent US11958865B1, “Leucine-rich repeat kinase 2 (LRRK2) inhibitors” (H. Lundbeck A/S, priority 2022, dated 2024)
